# Key:
# Experiment in all cases: PTP IC50 assay, pNPP or FDP as substrate
# Format in all cases: biochemical
# PTP SHP2 = molecular target: T1, PTP SHP2 (Homo sapiens, UniProt Q06124); details: pNPP or FDP as substrate, 25° C.; read-out: PTP IC50 SHP2
# T1 construct: The catalytic domain was amplified using the following oligonucleotides; made in house; host or cells: Sf-9 insect cells (pFastBac-G2T)
# T1 sequence (Q06124 247-517 limits assumed): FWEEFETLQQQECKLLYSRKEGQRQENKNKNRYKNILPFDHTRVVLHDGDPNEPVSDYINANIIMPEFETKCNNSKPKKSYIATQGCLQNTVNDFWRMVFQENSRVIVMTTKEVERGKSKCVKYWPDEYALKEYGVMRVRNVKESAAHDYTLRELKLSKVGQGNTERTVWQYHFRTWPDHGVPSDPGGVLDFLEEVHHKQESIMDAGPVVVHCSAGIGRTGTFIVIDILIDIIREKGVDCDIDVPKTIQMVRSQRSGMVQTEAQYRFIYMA
# Method: (§1) The following in vitro assay procedure is preferred to determine the level of activity and effect of the different compounds of the present invention on one or more of the PTPs. Similar assays can be designed along the same lines for any PTP using techniques well known in the art.
# (§2) The catalytic assays described herein are performed in a 96-well format. The general procedure begins with the determination of PTP optimal pH using a three-component buffer system that minimizes ionic strength variations across a wide range of buffer pH. Next, the Michaelis-Menten constant, or Km, is determined for each specific substrate-PTP system. This Km value is subsequently used as the substrate reaction concentration for compound screening. Finally, the test PTP is exposed to varying concentrations of compound for fifteen minutes and allowed to react with substrate for ten minutes. The results are plotted as percent inhibition versus compound concentration and the IC50 interpolated from the plot.
# (§3) All assays were performed using pNPP or FDP as substrate. The optimum pH was determined for each PTP used.
# (§4) PTPase activity was assayed at 25° C. in a 100-μl reaction mixture containing an appropriate concentration of pNPP or FDP as substrate. The reaction was initiated by addition of the PTP and quenched after 10 min by addition of 50 μl of IN NaOH. The non-enzymatic hydrolysis of the substrate was corrected by measuring the control without the addition of the enzyme. The amount of p-nitrophenol produced was determined from the absorbance at 410 nm. To determine the kinetic parameter, Km, the initial velocities were measured at various substrate concentrations and the data were fitted to the Michaelis equation where velocity=(Vmax*[S])/(Km+[S]), and [S]=substrate reaction concentration.
# (§5) The effect of the compounds on PTP was evaluated at 25° C. using pNPP or FDP as substrate. PTP was pre-incubated for fifteen minutes with various concentrations of compound. Substrate was then added at a fixed concentration (usually equal to the Km previously calculated). After 10 minutes, NaOH was added to stop the reaction. The hydrolysis of pNPP was followed at 410 nm on the Biotek Powerwave 200 microplate scanning spectrophotometer. The percent inhibition was calculated as follows: Percent Inhibition=[(control signal−compound signal)/control signal] ×100%. The IC50 was then determined by interpolation of a percent inhibition versus compound concentration plot.
# (§6) Plasmids designed for bacterial GST-PTP fusion protein expression were derived by insertion of PCR-generated human PTP fragments into pGEX vectors (Pharmacia Biotech). Several of these constructs were then used to subclone phosphatases into pFastBac-1for expression in Sf-9 insect cells. Oligonucleotides used for the initial amplification of PTP genes are shown below. The cDNAs were prepared using the Gilbo BRL superscript preamplification system on RNAs purchased from Clontech.
# SHP-2 cDNA was used as described earlier (Vogel W., et al.,1993, Science, 259:1611-4). The catalytic domain was amplified using the following oligonucleotides 5′oligo: 5′-[…]-3′ (SEQ ID NO: 2) 3′oligo: 5′-[…]-3′ (SEQ ID NO: 3) and subsequently subcloned into BamH1-Xba-1 sites. It was then ligated into pfas Bac-G2T BamH1-Xba-1 sites.
# PTP MEG2 = molecular target: T2, PTP MEG2 (Homo sapiens, UniProt P43378); details: pNPP or FDP as substrate, 25° C.; read-out: PTP IC50 MEG2
# T2 construct: made in house; host or cells: E. coli BL-21 (pGEX 6P-1)
# T2 sequence (P43378 262-593 limits assumed): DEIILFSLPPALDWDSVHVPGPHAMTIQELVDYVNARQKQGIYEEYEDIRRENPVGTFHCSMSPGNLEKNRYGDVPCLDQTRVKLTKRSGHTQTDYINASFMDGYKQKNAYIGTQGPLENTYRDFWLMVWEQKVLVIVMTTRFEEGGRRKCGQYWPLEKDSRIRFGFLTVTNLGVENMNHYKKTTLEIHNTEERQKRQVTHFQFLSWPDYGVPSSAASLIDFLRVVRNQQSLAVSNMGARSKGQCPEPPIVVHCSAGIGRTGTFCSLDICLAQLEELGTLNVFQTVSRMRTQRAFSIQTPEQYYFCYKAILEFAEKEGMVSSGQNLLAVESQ
# Method: as §1, §2, §3, §4, §5, §6
# The PTP MEG2 cDNA was amplified from human placenta single strand cDNA (Clontech RNA) using the following oligonucleotides: 5′oligo: 5′-[…]-3′ (SEQ ID NO: 8) 3′oligo: 5′-[…]-3′ (SEQ ID NO: 9) and subsequently ligated into pGex 6P-1 Eco RI/Xho I sites.
# PTP SIGMA = molecular target: T3, PTP SIGMA (Homo sapiens, UniProt Q13332); details: pNPP or FDP as substrate, 25° C.; read-out: PTP IC50 Sigma
# T3 construct: made in house; host or cells: E. coli BL-21 (pGEX 6P-1)
# T3 sequence (Q13332 1320-1660 limits assumed): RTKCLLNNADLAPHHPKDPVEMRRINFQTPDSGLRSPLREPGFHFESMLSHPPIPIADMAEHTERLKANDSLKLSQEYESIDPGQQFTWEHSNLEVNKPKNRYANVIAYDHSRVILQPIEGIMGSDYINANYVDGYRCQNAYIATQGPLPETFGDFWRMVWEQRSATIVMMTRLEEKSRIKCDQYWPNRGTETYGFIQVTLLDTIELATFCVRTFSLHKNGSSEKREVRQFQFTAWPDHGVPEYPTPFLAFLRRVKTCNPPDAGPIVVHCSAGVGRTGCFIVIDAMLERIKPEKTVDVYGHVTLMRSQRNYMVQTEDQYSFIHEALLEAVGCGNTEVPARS
# Method: as §1, §2, §3, §4, §5, §6
# The PTP Sigma cDNA was amplified from human brain single strand cDNA (Clontech RNA) using the following oligonucleotides: 5′oligo: 5′-[…]-3′ (SEQ ID NO: 12) 3′oligo: 5′-[…]-3′ (SEQ ID NO: 13) and subsequently ligated into pGex 6P-1 Eco RI/Xho I sites.
Compound,IC50 (PTP SHP2),IC50 (PTP MEG2),IC50 (PTP SIGMA)
"COC(=O)c1c(Oc2ccc(S(=O)(=O)C(F)(F)F)cc2[N+](=O)[O-])cc(C)cc1Oc1ccc(S(=O)(=O)C(F)(F)F)cc1[N+](=O)[O-] [Example 13, 4-Methyl-2,6-bis-(2-nitro-4-trifluoromethanesulfonyl-phenoxy)-benzoic acid methyl ester]",> 100 µM,> 100 µM,84.5 µM
"O=C(O)c1ccc(Oc2cccc(Oc3ccc(S(=O)(=O)C(F)(F)F)cc3)c2)cc1 [Example 18, 4-[3-(4-Trifluoromethanesulfonyl-phenoxy)-phenoxy]-benzoic acid]",18.4 µM,44 µM,22.1 µM
"CCOC(=O)COc1ccc(S(=O)(=O)c2ccc(Oc3ccc(S(=O)(=O)C(F)(F)F)cc3[N+](=O)[O-])cc2)cc1 [Example 17, {4-[4-(2-Nitro-4-trifluoromethanesulfonyl-phenoxy)-benzenesulfonyl]-phenoxy}-acetic acid ethyl ester]",> 100 µM,88.5 µM,> 100 µM
"O=C(c1ccccc1)N(Cc1ccc(S(=O)(=O)C(F)(F)F)cc1)Cc1ccc(S(=O)(=O)C(F)(F)F)cc1 [Example 3, N,N-Bis(4-trifluoromethylsulfonylbenzyl)benzamide]",74.5 µM,85.9 µM,42.6 µM
"COC(=O)Cc1cc(Oc2ccc(S(=O)(=O)C(F)(F)F)cc2[N+](=O)[O-])cc(Oc2ccc(S(=O)(=O)C(F)(F)F)cc2[N+](=O)[O-])c1 [Example 10, [3,5-Bis-(2-nitro-4-trifluoromethanesulfonyl-phenoxy)-phenyl]-acetic acid methyl ester]",> 100 µM,> 100 µM,33.8 µM
"O=[N+]([O-])c1cc(S(=O)(=O)C(F)(F)F)ccc1SSc1ccc(S(=O)(=O)C(F)(F)F)cc1[N+](=O)[O-] [Example 8, Bis-(2-nitro-4-trifluoromethylsulfonylphenyl) disulfide]",37 µM,> 100 µM,27.7 µM
"O=S(=O)(c1ccc(CCc2ccc(S(=O)(=O)C(F)(F)F)cc2)cc1)C(F)(F)F [Example 4, 1,2-Bis(4-trifluoromethylsulfonylphenyl)ethane]",> 100 µM,45.9 µM,81.1 µM
"O=C(O)c1ccc(Oc2cccc(Oc3ccc(S(=O)(=O)C(F)(F)F)cc3[N+](=O)[O-])c2)cc1 [Example 15, 4-[3-(2-Nitro-4-trifluoromethanesulfonyl-phenoxy)-phenoxy]-benzoic acid]",10.7 µM,21.1 µM,11.7 µM
"O=C(NCc1ccc(S(=O)(=O)C(F)(F)F)cc1)c1ccccc1 [Example 6, N-(4-Trifluoromethylsulfonylbenzyl)benzamide]",> 100 µM,> 100 µM,> 100 µM
"O=C(Cc1ccccc1CC(=O)Nc1cccc(S(=O)(=O)C(F)(F)F)c1)Nc1cccc(S(=O)(=O)C(F)(F)F)c1 [Example 20, N-(3-Trifluoromethanesulfonyl-phenyl)-2-{2-[(3-trifluoromethanesulfonyl-phenylcarbamoyl)-methyl]-phenyl}-acetamide]",54.3 µM,> 100 µM,22.9 µM
"CC(C)(COc1ccc(NS(=O)(=O)C(F)(F)F)cc1)COc1ccc(NS(=O)(=O)C(F)(F)F)cc1 [Example 68, 1,3-Bis(4-trifluoromethylsulfonamidophenoxy)-2,2-dimethylpropane]",6.2 µM,34.4 µM,11.6 µM
"COC(=O)c1cc(Oc2ccc(S(=O)(=O)C(F)(F)F)cc2[N+](=O)[O-])n(-c2cc(C(F)(F)F)cc(C(F)(F)F)c2)n1 [Example 16, 1-(3,5-Bis-trifluoromethyl-phenyl)-5-(2-nitro-4-trifluoromethanesulfonyl-phenoxy)-1H-pyrazole-3-carboxylic acid methyl ester]",> 100 µM,79.5 µM,29.4 µM
"O=S(=O)(Nc1ccc(OCCCOc2ccc(NS(=O)(=O)C(F)(F)F)cc2)cc1)C(F)(F)F [Example 69, 1,3-Bis(4-trifluoromethylsulfonamidophenoxy)propane]",20.3 µM,> 100 µM,41.7 µM
"O=C(O)Cc1ccc(CC(=O)Nc2cccc(S(=O)(=O)C(F)(F)F)c2)cc1 [Example 29, {4-[(3-Trifluoromethanesulfonyl-phenylcarbamoyl)-methyl]-phenyl}-acetic acid]",37 µM,68.3 µM,60.6 µM
CC(C)(c1ccc(NS(=O)(=O)C(F)(F)F)cc1)c1ccc(C(C)(C)c2ccc(NS(=O)(=O)C(F)(F)F)cc2)cc1 [Example 76],1.8 µM,12.9 µM,20 µM
"O=[N+]([O-])c1cc(S(=O)(=O)C(F)(F)F)ccc1OC1CCC(Oc2ccc(S(=O)(=O)C(F)(F)F)cc2[N+](=O)[O-])C1 (mixture of isomers) [Example 12, 1,3-Bis-(2-nitro-4-trifluoromethanesulfonyl-phenoxy)-cyclopentane]",79.8 µM,> 100 µM,91.7 µM
"COC(=O)c1cc(Oc2ccc(S(=O)(=O)C(F)(F)F)cc2)cc(Oc2ccc(S(=O)(=O)C(F)(F)F)cc2)c1 [Example 9, 3,5-Bis-(4-trifluoromethanesulfonyl-phenoxy)-benzoic acid methyl ester]",> 100 µM,> 100 µM,49.9 µM
"O=C(Cc1cccc(CC(=O)Nc2cccc(S(=O)(=O)C(F)(F)F)c2)c1)Nc1cccc(S(=O)(=O)C(F)(F)F)c1 [Example 21, N-(3-Trifluoromethanesulfonyl-phenyl)-2-{3-[(3-trifluoromethanesulfonyl-phenylcarbamoyl)-methyl]-phenyl}-acetamide]",56.8 µM,49.4 µM,21.1 µM
